Measured values as given in patent US11351134B2, “Small molecule agents, compositions, and formulations, for internal use, displaying inhibitory activity against gram-positive and/or gram-negative organisms” (NATUREZA, INC., priority 2017, dated 2022).
Where two headings read alike, the source gives them in different places.

What was measured:
[1] = test system: representative bacteria tested in vitro, whether Gram-positive or Gram-negative; experiment: In vitro growth inhibition of active component suspended in chloroform, mixed with water, chloroform evaporated; format: cell-based; details: pH neutral or acidic, no lecithin or chitosan
Description: In another preparation, each of the lauric acid derivatives of TABLE 4 was independently suspended in an organic solvent, chloroform, and then mixed with water, generally under agitated conditions. This was followed by chloroform evaporation, generally under vacuum, using a freeze dryer. The same preparations were evaluated against the positive control, decanoic acid. Here, for all samples, the amount of water to the amount of chloroform was at least 2:1, and was as high as 10:1. The pH was neutral or was acidic. For each of the lauric acid derivatives as so prepared independently, there was no evidence of any growth inhibitory activity (growth inhibition) against representative bacteria tested in vitro, whether Gram-positive or Gram-negative.

E. coli = experiment: Broth microdilution MIC of lecithin/chitosan particle compositions; format: cell-based; details: lecithin/chitosan particle composition; prep. mixture pH 5 or pH 7; maximum concentration tested 10 mg/ml
Description: (§1) Initially, to determine basic characteristics, each active component was separately mixed, generally under agitated conditions, with water, and each was miscible with water. Each, after being mixed with water, was tested in a broth microdilution assay, against a variety of bacteria using amounts of the each of the lauric acid derivatives, ranging from about 0.0009 wt. % to about 8 wt. %. The bacteria included Escherichia coli, and Staphylococcus aureus (including MRSA strains). The minimum inhibitory concentration (MIC) needed to prevent growth of the target bacteria was evaluated based on a method published by Clinical Laboratory Standards Institute (CLSI), broth microdilution method M-07 (M07). […] Each of the samples containing one of the lauric acid derivatives was compared with a positive control, decanoic acid.
(§2) For TABLES 1 to 3, compositions were generally prepared as described above, and as further outlined in this paragraph. For these examples, the active component, as a lauric acid derivative or lauric acid, was suspended in an organic solvent, chloroform, and then mixed with water, under robust agitation. The amount of water to the amount of chloroform was at least about 2:1, and could be as high as 10:1. Chloroform was then evaporated (e.g., under vacuum using a freeze dryer). After removal of the chloroform, a 2.2% lecithin solution in an acetate buffer (e.g., 98 mM acetic acid and 2 mM sodium acetate) was prepared and added, so the final amount of the active component was about 1 part active component mixture and about 9 parts of the 2.2% lecithin solution. Of course, it is noted that other ranges to achieve final amount of the active component as described above (e.g., active component mixture and lecithin solution) may also be utilized. Cholesterol could also be optionally added. The mixture of lecithin and the active component was mixed and sonicated, and then a solution of about 1.5% chitosan was added. Thereafter, the entirety of the mixture containing the lecithin and the active component was further blended, in which a final ratio was about 1 part active component to about 9 parts of the 2.2% lecithin solution to about 10 parts of the 1.5% chitosan solution. The pH was then varied, to a pH of 5, or a pH of 7, or a pH of 9. In some mixtures having a pH of 7, a chemical agent imparting a positive charge to the chitosan was included in a form of glycol chitosan. In these tests, the chemical agent used was glycol. In these examples, the amount of chemical agent, glycol was about one molecule glycol moiety to one molecule chitosan sacharide unit; higher amounts of glycol moieties are also acceptable, while lower amounts of glycol moieties were often found to decrease overall inhibitory activity associated with a composition when formed and tested in vitro. It is noted that negatively charged chitosan containing particles were prepared. […] After mixing, the mixtures could each be filtered through a […] filter. In some tests, the mixtures were sonicated before filtering. Sonication produced small particles. In some studies, particles were freeze dried as a powder (generally, after mixing, sonicating and filtering).
(§3) The positive controls were prepared and evaluated in a similar manner. All prepared samples were tested using a broth microdilution test.

S. epidermidis = experiment: as above; format: cell-based; details: Staphylococcus epidermidis, lecithin/chitosan particle composition, prep. mixture pH 5 or pH 7, maximum concentration tested 10 mg/ml
Description: as §1, §2, §3

Miscibility with water = format: physicochemical; details: mixed with water under agitated conditions
Description: as §1

CCCCCCCCCC(=O)O [decanoic acid, reference compound]
Growth inhibitory activity against representative bacteria [1]: did not demonstrate growth inhibitory activity | MIC (mg/ml) for E. coli (chitosan prep. mixture was at pH 5 or at pH 7) (E. coli): — (no inhibitory activity) | MIC (S. epidermidis; Table 3, read-out: MIC (mg/ml) S. epidermidis (chitosan prep. mixture at pH 5 or at pH 7)): 10 mg/mL | MIC (S. epidermidis; read-out: MIC (mg/ml) for S. epidermidis (chitosan prep. mixture was at pH 5 or at pH 7)): 10 mg/mL | Miscibility with water (Miscibility with water): not miscible in water
